Measured values: US20250059213A1, “LONP1 INHIBITORS, USES AND METHODS” (Pretzel Therapeutics, Inc., priority 2021, published 2025)
pIC50: −log10 of the molar value.

Biological target: LONP1 (NM_004793.4) (Homo sapiens (Human), UniProt P36776)
Assay: LONP1 FRET-based protease activity assay (fluorogenic peptide substrate)
Assay type: biochemical
Conditions: LONP1 15 nM, substrate 3 μM, 15 min preincubation, 1 hour at 37° C.; average of a minimum of two repeats
Procedure: Inhibition of LONP1 protease activity by an inhibitor compound of the disclosure elicits a decrease in the fluorescent signal.
The LONP1-containing mix (10 μL) was incubated with the test compound for 15 min at 37° C. before adding the peptide-containing mix (5 μL). Solutions were dispensed using a small cassette-Multidrop Combi (Thermo Scientific).
Each value is based on an average of a minimum of two repeats.

Sequence of LONP1 (NM_004793.4) (P36776 68-959): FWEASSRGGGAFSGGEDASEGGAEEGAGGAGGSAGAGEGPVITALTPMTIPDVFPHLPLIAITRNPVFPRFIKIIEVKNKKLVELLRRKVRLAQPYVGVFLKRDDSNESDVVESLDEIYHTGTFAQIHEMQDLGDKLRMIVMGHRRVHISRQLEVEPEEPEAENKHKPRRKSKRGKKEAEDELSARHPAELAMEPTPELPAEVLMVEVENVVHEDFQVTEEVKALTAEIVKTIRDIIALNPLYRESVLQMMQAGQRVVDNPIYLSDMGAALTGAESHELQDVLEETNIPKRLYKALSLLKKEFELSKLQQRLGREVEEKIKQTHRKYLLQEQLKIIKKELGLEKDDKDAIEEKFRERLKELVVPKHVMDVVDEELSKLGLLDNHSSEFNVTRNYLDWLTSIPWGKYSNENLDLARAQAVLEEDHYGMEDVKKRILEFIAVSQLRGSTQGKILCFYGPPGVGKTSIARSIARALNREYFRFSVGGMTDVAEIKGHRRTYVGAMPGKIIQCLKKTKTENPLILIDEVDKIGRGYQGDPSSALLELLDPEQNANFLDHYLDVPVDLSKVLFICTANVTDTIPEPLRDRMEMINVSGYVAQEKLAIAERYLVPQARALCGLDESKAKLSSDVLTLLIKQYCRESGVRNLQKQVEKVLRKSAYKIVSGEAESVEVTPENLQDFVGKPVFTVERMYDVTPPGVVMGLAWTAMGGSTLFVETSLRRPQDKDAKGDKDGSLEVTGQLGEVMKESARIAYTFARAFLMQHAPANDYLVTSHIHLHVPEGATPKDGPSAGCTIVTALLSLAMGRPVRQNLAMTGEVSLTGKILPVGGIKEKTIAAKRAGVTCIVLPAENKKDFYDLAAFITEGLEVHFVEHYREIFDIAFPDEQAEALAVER

Structure (SMILES) | pIC50
O=C(N[C@H](CC(=O)N1CCOCC1)C(=O)NC(CCCc1ccccc1)B(O)O)C1CCCCC1 (stereo in doubt) [Compound 41, ((R)-1-((R)-2-(cyclohexanecarboxamido)-4-morpholino-4-oxobutanamido)-4-phenylbutyl)boronic acid] | > 7.30
O=C(N[C@H](CC(=O)N1CCOCC1)C(=O)NC(CCCc1ccccc1)B(O)O)C1CCOCC1 (stereo in doubt) [Compound 42, ((R)-1-((R)-4-morpholino-4-oxo-2-(tetrahydro-2H-pyran-4-carboxamido)butanamido)-4-phenylbutyl)boronic acid] | > 7.30
O=C(C[C@@H](NC(=O)c1cnccn1)C(=O)N[C@@H](CCCc1ccccc1)B(O)O)c1ccccc1 [Compound 3, ((1R)-1-(4-oxo-4-phenyl-2-(pyrazine-2-carboxamido)butanamido)-4-phenylbutyl)boronic acid] | > 7.30
CCCC[C@H](NC(=O)[C@@H](CC(=O)N1CCOCC1)NC(=O)c1cnccn1)B(O)O [Compound 6, ((R)-1-((R)-4-morpholino-4-oxo-2-(pyrazine-2-carboxamido)butanamido)pentyl)boronic acid] | > 7.30
CN(C)C(=O)C[C@@H](NC(=O)c1cnccn1)C(=O)N[C@@H](CCCc1ccccc1)B(O)O [Compound 8, ((R)-1-((R)-4-(dimethylamino)-4-oxo-2-(pyrazine-2-carboxamido)butanamido)-4-phenylbutyl)boronic acid] | > 7.30
CCNC(=O)C[C@@H](NC(=O)c1cnccn1)C(=O)N[C@@H](CCCc1ccccc1)B(O)O [Compound 9, ((R)-1-((R)-4-(ethylamino)-4-oxo-2-(pyrazine-2-carboxamido)butanamido)-4-phenylbutyl)boronic acid] | > 7.30
NC(=O)C[C@@H](NC(=O)c1cnccn1)C(=O)N[C@@H](CCCc1ccccc1)B(O)O [Compound 10, ((R)-1-((R)-4-amino-4-oxo-2-(pyrazine-2-carboxamido)butanamido)-4-phenylbutyl)boronic acid] | > 7.30
CC(=O)N[C@H](CC(=O)N1CCOCC1)C(=O)N[C@@H](CCCc1ccccc1)B(O)O [Compound 19, ((R)-1-((R)-2-acetamido-4-morpholino-4-oxobutanamido)-4-phenylbutyl)boronic acid] | > 7.30
CC(C)(C)OC(=O)N[C@H](CC(=O)N1CCOCC1)C(=O)N[C@@H](CCCc1ccccc1)B(O)O [Compound 21, ((R)-1-((R)-2-((tert-butoxycarbonyl)amino)-4-morpholino-4-oxobutanamido)-4-phenylbutyl)boronic acid] | > 7.30
CC(C)(C)NC(=O)N[C@H](CC(=O)N1CCOCC1)C(=O)N[C@@H](CCCc1ccccc1)B(O)O [Compound 22, ((R)-1-((R)-2-(3-(tert-butyl)ureido)-4-morpholino-4-oxobutanamido)-4-phenylbutyl)boronic acid] | 6.30 to 7.30
O=C(N[C@H](CCC(=O)N1CCOCC1)C(=O)N[C@@H](CCCc1ccccc1)B(O)O)c1cnccn1 [Compound 23, ((R)-1-((R)-5-morpholino-5-oxo-2-(pyrazine-2-carboxamido)pentanamido)-4-phenylbutyl)boronic acid] | > 7.30
O=C(N[C@H](COc1ccccn1)C(=O)N[C@@H](CCCc1ccccc1)B(O)O)c1cnccn1 [Compound 29, ((R)-4-phenyl-1-((R)-2-(pyrazine-2-carboxamido)-3-(pyridin-2-yloxy)propanamido)butyl)boronic acid] | > 7.30
CCC[C@H](NC(=O)[C@@H](CC(=O)N1CCOCC1)NC(=O)c1cnccn1)B(O)O [Compound 31, ((R)-1-((R)-4-morpholino-4-oxo-2-(pyrazine-2-carboxamido)butanamido)butyl)boronic acid] | > 7.30
CC[C@H](NC(=O)[C@@H](CC(=O)N1CCOCC1)NC(=O)c1cnccn1)B(O)O [Compound 32, ((R)-1-((R)-4-morpholino-4-oxo-2-(pyrazine-2-carboxamido)butanamido)propyl)boronic acid] | > 7.30
CN(C)C(=O)N[C@H](CC(=O)N1CCOCC1)C(=O)N[C@@H](CCCc1ccccc1)B(O)O [Compound 33, ((R)-1-((R)-2-(3,3-dimethylureido)-4-morpholino-4-oxobutanamido)-4-phenylbutyl)boronic acid] | > 7.30
COC[C@@H](NC(=O)c1cnccn1)C(=O)N[C@@H](CCCc1ccccc1)B(O)O [Compound 37, ((R)-1-((R)-3-methoxy-2-(pyrazine-2-carboxamido)propanamido)-4-phenylbutyl)boronic acid] | > 7.30
COC[C@@H](NC(=O)c1cnccn1)C(=O)N[C@@H](COCc1ccccc1)B(O)O [Compound 38, ((R)-2-(benzyloxy)-1-((R)-3-methoxy-2-(pyrazine-2-carboxamido)propanamido)ethyl)boronic acid] | > 7.30
CCC[C@@H](NC(=O)c1cnccn1)C(=O)N[C@@H](COCc1ccccc1)B(O)O [Compound 39, ((R)-2-(benzyloxy)-1-((R)-2-(pyrazine-2-carboxamido)pentanamido)ethyl)boronic acid] | > 7.30
O=C(N[C@@H](CCCc1ccccc1)B(O)O)[C@@H](CC(=O)N1CCOCC1)NS(=O)(=O)c1ccccc1 [Compound 43, ((R)-1-((R)-4-morpholino-4-oxo-2-(phenylsulfonamido)butanamido)-4-phenylbutyl)boronic acid] | > 7.30
O=C(N[C@H](CC(=O)N1CCOCC1)C(=O)N[C@@H](CCCc1ccccc1)B(O)O)C1CCCCO1 (stereo partly drawn) [Compound 44, ((1R)-1-((2R)-4-morpholino-4-oxo-2-(tetrahydro-2H-pyran-2-carboxamido)butanamido)-4-phenylbutyl)boronic acid] | > 7.30

Further lines, results first:

pIC50 | Structure (SMILES)
< 5.30 | O=C(NC(CC(=O)N1CCOCC1)C(=O)N[C@@H](Cc1ccccc1)B(O)O)c1cnccn1 (stereo in doubt) [Compound 47, ((R)-1-((R)-4-morpholino-4-oxo-2-(pyrazine-2-carboxamido)butanamido)-2-phenylethyl)boronic acid]
> 7.30 | CC(C)C[C@H](NC(=O)[C@@H](CC(=O)N1CCOCC1)NC(=O)c1cnccn1)B(O)O [Compound 4, ((R)-3-methyl-1-((R)-4-morpholino-4-oxo-2-(pyrazine-2-carboxamido)butanamido)butyl)boronic acid]
> 7.30 | O=C(N[C@H](CC(=O)N1CCOCC1)C(=O)N[C@@H](CCc1ccccc1)B(O)O)c1cnccn1 [Compound 5, ((R)-1-((R)-4-morpholino-4-oxo-2-(pyrazine-2-carboxamido)butanamido)-3-phenylpropyl)boronic acid]
> 7.30 | Cc1nc(C)c(C(=O)N[C@H](CC(=O)N2CCOCC2)C(=O)N[C@@H](CC(C)C)B(O)O)o1 [Compound 7, ((R)-1-((R)-2-(2,4-dimethyloxazole-5-carboxamido)-4-morpholino-4-oxobutanamido)-3-methylbutyl)boronic acid]
> 7.30 | O=C(N[C@H](CC(=O)N1CCCCC1)C(=O)N[C@@H](CCCc1ccccc1)B(O)O)c1cnccn1 [Compound 11, ((R)-1-((R)-4-oxo-4-(piperidin-1-yl)-2-(pyrazine-2-carboxamido)butanamido)-4-phenylbutyl)boronic acid]
> 7.30 | O=C(N[C@@H](CCCc1ccccc1)B(O)O)[C@@H](CC(=O)N1CCOCC1)NC(=O)N1CCOCC1 [Compound 20, ((R)-1-((R)-2-(morpholine-4-carboxamido)-4-morpholino-4-oxobutanamido)-4-phenylbutyl)boronic acid]
> 7.30 | CN(C)S(=O)(=O)C[C@@H](NC(=O)c1cnccn1)C(=O)N[C@@H](CCCc1ccccc1)B(O)O [Compound 27, ((R)-1-((S)-3-(N,N-dimethylsulfamoyl)-2-(pyrazine-2-carboxamido)propanamido)-4-phenylbutyl)boronic acid]
> 7.30 | CS(=O)(=O)CC[C@@H](NC(=O)c1cnccn1)C(=O)N[C@@H](CCCc1ccccc1)B(O)O [Compound 35, ((R)-1-((R)-4-(methylsulfonyl)-2-(pyrazine-2-carboxamido)butanamido)-4-phenylbutyl)boronic acid]
> 7.30 | COC[C@@H](NC(=O)c1ccccc1)C(=O)N[C@@H](CCCc1ccccc1)B(O)O [Compound 48, ((R)-1-((R)-2-benzamido-3-methoxypropanamido)-4-phenylbutyl)boronic acid]
> 7.30 | COC[C@@H](NC(=O)c1cccc(OC)n1)C(=O)N[C@@H](CCCc1ccccc1)B(O)O [Compound 50, ((R)-1-((R)-3-methoxy-2-(6-methoxypicolinamido)propanamido)-4-phenylbutyl)boronic acid]
6.30 to 7.30 | CCC[C@H](C(=O)N[C@@H](CCCc1ccccc1)B(O)O)N(C)C(=O)c1cnccn1 [Compound 51, ((R)-1-((R)-2-(N-methylpyrazine-2-carboxamido)pentanamido)-4-phenylbutyl)boronic acid]
6.30 to 7.30 | CCC[C@H](C(=O)N(C)[C@@H](CCCc1ccccc1)B(O)O)N(C)C(=O)c1cnccn1 [Compound 52, ((R)-1-((R)—N-methyl-2-(N-methylpyrazine-2-carboxamido)pentanamido)-4-phenylbutyl)boronic acid]
